Reference: patent US6071932A, “Carbazolypiperines as GABA uptake inhibitors” (British Technology Group Intercorporate Licensing Limited, priority 1995, dated 2000)
Structures can show the parent of a compound that is named as a salt.

System: GABA uptake
Test: not given
Conditions: cited from earlier work

Compound	inhibition of GABA uptake from the synaptic cleft into presynaptic nerve terminals and glial cells
O=C(O)C1CCCNC1 (stereo not drawn) [nipecotic acid, 3-piperidinecarboxylic acid]	well-known and potent inhibitor

Molecular target: T1, GABA uptake carrier (Rattus norvegicus, UniProt P31647)
T1 construct: A crude membrane preparation was prepared from selected brain areas; from tissue; host or cells: crude membrane (synaptosomal) preparation from selected brain areas
T1 sequence (P31647 1-627): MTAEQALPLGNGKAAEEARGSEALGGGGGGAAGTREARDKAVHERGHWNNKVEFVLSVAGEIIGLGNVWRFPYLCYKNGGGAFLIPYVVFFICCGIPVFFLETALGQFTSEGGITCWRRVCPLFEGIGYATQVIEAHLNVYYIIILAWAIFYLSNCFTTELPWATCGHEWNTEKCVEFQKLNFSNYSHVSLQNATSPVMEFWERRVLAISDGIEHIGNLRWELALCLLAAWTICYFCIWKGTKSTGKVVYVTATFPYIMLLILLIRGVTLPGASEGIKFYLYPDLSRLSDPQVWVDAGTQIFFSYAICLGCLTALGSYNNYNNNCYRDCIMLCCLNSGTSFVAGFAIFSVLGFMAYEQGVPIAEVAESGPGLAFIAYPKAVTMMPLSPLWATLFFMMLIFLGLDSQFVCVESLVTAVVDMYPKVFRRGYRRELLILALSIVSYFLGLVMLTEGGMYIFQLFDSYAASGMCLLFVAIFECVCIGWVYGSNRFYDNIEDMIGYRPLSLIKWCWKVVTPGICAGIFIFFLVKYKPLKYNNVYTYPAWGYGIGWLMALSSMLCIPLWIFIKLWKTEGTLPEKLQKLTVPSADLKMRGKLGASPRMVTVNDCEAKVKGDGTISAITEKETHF
Test: 3H-GABA uptake in crude brain membrane preparation in presence of NNC 05-0711
Format: biochemical
Conditions: NNC 05-0711 1 mM, 0.9 nM 3H-GABA + 25 nM GABA, pH 7.5, 30° C., 8 min, read-out: IC50 (nM) in vitro, Non-GABA uptake carrier mediated uptake of 3H-GABA
Experimental: ^3 H-GABA uptake was measured by a modification of the method of Fjalland et al., (1978). A crude membrane preparation was prepared from selected brain areas by homogenization in 20 ml of ice-cold 0.32 M sucrose with a hand driven teflon/glass Potter-Elvehjem homogenizer. The homogenate was centrifuged at 4° C. for 10 min. at 1.000×g, and the pellet was discarded. The supernatant was recentrifuged at 4° C. for 20 min. at 20.000×g. The pellet was then homogenized in 50 volumes 0.32 M sucrose. To 300 μl uptake-buffer ([…], 15.3 mM KCl, 6.67 mM MgSO4, 3.83 mM CaCl2, 16.67 mM glucose, 66.67 mM Tris, pH 7.5 at 30° C.) was added 1-(2-(((diphenylmethylene)amino)oxy)ethyl)-1,2,5,6-tetrahydro-3-pyridinecarboxylic acid (NNC 05-0711) (1 mM final concentration), 100 μl test substance and 50 μl tissue suspension. The samples were mixed and incubated at 30° C. for 8 min. Then ^3 H-GABA (0.9 nM final concentration) and unlabelled GABA (25 nM final concentration) was added, and the incubation was continued for an additional 8 min. The reaction was terminated by rapid filtration through Whatman GF/F glass fiber filters under vacuum. The filters were then washed twice in 10 ml of ice-cold isotonic saline, and the tritium trapped on the filters was quantified by conventional scintillation spectroscopy. Non-GABA uptake carrier mediated uptake of ^3 H-GABA was determined in the presence of […].

Compound	IC50 [nM]
C[C@@H](CN1CCC(O)(c2ccccc2)CC1)Cn1c2ccccc2c2ccccc21 [Compound 11, (S)-1-((3-(9H-Carbazol-9-yl)-2-methyl)-1-propyl)-4-ph-enylpiperidin-4-ol hydrochloride]	1480
C[C@H](CN1CCC(O)(c2ccccc2)CC1)Cn1c2ccccc2c2ccccc21 [Compound 13, (R)-1-((3-(9H-Carbazol-9-yl)-2-methyl)-1-propyl)-4-phenylpiperidin-4-ol hydrochloride]	7860
CCc1ccc2c(c1)c1ccccc1n2CCCN1CCC(O)(c2ccccc2)CC1 [Compound 16, 1-(3-(3-Ethyl-9H-carbazol-9-yl)-1-propyl)-4-phenylpiperidin-4-ol]	1700
CC(Cl)CC(=O)n1c2ccccc2c2ccccc21 (stereo not drawn) [Compound 23, 1-(9H-Carbazol-9-yl)-3-chlorobutan-1-one]	3100

System: GABA uptake
Test: not given
Conditions: oral; Yunger, L. M. et al. 1984; cited from earlier work

Compound	orally active inhibition of GABA uptake
O=C(O)C1CCCN(CCC=C(c2ccccc2)c2ccccc2)C1 (stereo not drawn) [SK&F 89976A, N-(4,4-diphenyl-3-buten-1-yl)nipecotic acid]	orally active inhibitors of GABA uptake
O=C(O)C1=CCCN(CCC=C(c2ccccc2)c2ccccc2)C1 [SK&F 100330A, N-(4,4-diphenyl-3-buten-1-yl)guvacine]	orally active inhibitors of GABA uptake
O=C(O)CC1CCN(CCC=C(c2ccccc2)c2ccccc2)C1 (stereo not drawn) [SK&F 100561, N-(4,4-diphenyl-3-buten-1-yl)-homo-β-proline]	orally active inhibitors of GABA uptake
O=C(O)C1CCCN(CCC=C(c2ccccc2)c2cccs2)C1 (stereo not drawn) [SK&F 100604J, N-(4-phenyl-4-(2-thienyl)-3-buten-1-yl)nipecotic acid]	orally active inhibitors of GABA uptake
